{
  "source": "patent US12312346B2",
  "about": "“Pyridopyrimidine compounds and methods of their use” (Tufts Medical Center, Inc., priority 2018, dated 2025)",
  "test_system": "human leukemia cell line HPBALL (with Notch1 mutations)",
  "assay": "Cell cycle (PI staining, S-G2-M cells) and cell number, HPBALL",
  "assay_type": "cell-based",
  "details": "Homo sapiens, 144 h; HPBALL, 6 days; read-out: IC50 (inhibition of proliferation, percentage of S-G2-M cells)",
  "description": "FIG. 1A is a series of charts showing representative cell cycle profiles of human leukemia cell line HPBALL (with Notch1 mutations) treated with a vehicle (V) (for ribociclib (LEE) or compound GD) or LEE or compound GD for 6 days at 1, 5, 10, and 20 μM.\nFIG. 1B is a histogram summarizing the cell cycle distribution of the HPBALL cell line treated with compound GD, as described for FIG. 1A. Data shown are mean±S.D. (n=6); *P<0.05 vs its vehicle controls, t-test.\nFIG. 1C is a histogram summarizing the cell cycle distribution of the HPBALL cell line treated with ribociclib (LEE), as described for FIG. 1A. Data shown are mean±S.D. (n=6); *P<0.05 vs its vehicle controls, t-test.\nFIG. 1D is a chart the percentage of S-G2-M cells in FIGS. 1B and 1C. IC50 is the concentration of an inhibitor where the response (here is the inhibition of proliferation) is reduced by half.\nFIG. 1E is a bar graph summarizing the cell numbers of HPBALL cells treated with either GD with different doses or LEE (20 μM) for 6 days. Data shown are mean±S.D. (n=6); *P<0.05 vs vehicles (0) control, t-test.\nHCl salt of 6-acetyl-5-methyl-2-((4-(piperazin-1-ylmethyl)thiazol-2-yl)amino)pyrido[2,3-d]pyrimidin-7(8H)-one (Compound GD) prepared in Example 1 was examined for its inhibitory activity in cancer cell lines and WT and CDK6^−/− mouse embryonic fibroblasts (MEFs) and stromal vascular fractions (SVFs). […]\nTable 2: Experimental Procedures: sensitivity to CDK6 kinase activity inhibition was tested by incubating different cell lines in the presence of CDK6 inhibitor GD007/PBS for either 24 hours for detecting the status of pRB-780 phosphorylation, or 5 days for determining the effect of GD007 on cell proliferation. (1) By immunoblotting (WB), we will detect phospho-pRB-S^780, one of the substrates of CDK6 kinase; (2) By using FACS analysis, we will stain treated cells with Propidium Iodide (PI), a commonly used fluorescent intercalator, to measure the subpopulation of cell cycle to reveal any impact of CDK6 inhibition on cell proliferation; (3) cell numbers will be counted using hemocytometer.",
  "data": [
    {"compound": "CN(C)C(=O)c1cc2cnc(Nc3ccc(N4CCNCC4)cn3)nc2n1C1CCCC1", "note": "[LEE, ribociclib, reference compound]", "values": [
      {"measurement": "IC50", "result": "~12", "unit": "µM"}
    ]}
  ]
}
